Measured values published in US10221255B2, “Composition for the immediate stopping of a free-radical polymerization” (BASF SE, priority 2015, dated 2019).

Columns and labels:
[1] = Heating test in acrylic acid: inhibition period at 120° C. under air; settings: PTZ 20 ppm in acrylic acid, average of three
Protocol: In this example, heating tests in acrylic acid (AA) were carried out. In this test, a sample of acrylic acid is maintained at 120° C. under an air atmosphere and the time until occurrence of turbidity in the solution is determined. The time is considered to be the inhibition period (IP) of the acrylic acid sample.
A part 1 was taken from the pure acrylic acid distillate RD and a stock solution 1 comprising 1000 ppm by weight of phenothiazine (PTZ) was produced with stirring.
40 parts by weight of stock solution 1 were mixed with 960 parts by weight of the pure acrylic acid distillate RD so as to give the stock solution 3. Part of this stock solution 3 was divided into identical samples having volumes of 1 ml.
Samples taken from the stock solutions 2 were combined with the various 1 ml samples obtained from the stock solutions 3 in such a way that the desired compositions of acrylic acid, phenothiazine (PTZ), ionic liquids IL, solvents LM or mixtures IL/LM of ionic liquids IL with solvents LM were obtained by doping. The doped samples produced in this way were provided for further examination on the same day. For repeat measurements, fresh doped samples were produced in order to minimize the influence of the acrylic acid oligomers obtained by Michael oligomerization.
To examine the polymerization tendency of the respective doped sample, three HPLC vials (transparent vessels having a fill volume of 1.5 ml) were in each case charged with 0.5 ml of the respective sample under air and subsequently tightly closed by means of a crimped cap. Immediately after production, in each case up to 92 vials charged as described were hung in a holder made for this purpose and kept at a temperature of 120° C. in a convection drying oven while the holder rotated at six revolutions per minute in order to ensure complete mixing in the vials (the liquid content of the respective vial came into contact with the crimped cap six times per minute). The time T to complete polymerization of the respective sample in the associated vial was then measured. For this purpose, the samples in the vials in the drying oven were monitored by means of a digital video camera and the video film was subsequently evaluated visually.
Three associated values of T were determined in this way for each doped sample and these were arithmetically averaged.
When mixtures of ionic liquid and solvent were used as additive, the weight ratio of ionic liquid to solvent or to the solvent mixture (IL/LM) was 20/80.

[2] = Hansen solubility parameters and solubility distance Ra of solvents; assay type: physicochemical; parameters: key: solubility distance Ra in MPa^1/2; settings: solubility distance calculated from formula 1
Source text: The value will hereinafter also be referred to as solubility distance Ra. The definition and calculation of the solubility parameters in the three-dimensional Hansen solubility space are described in: C. M. Hansen: “The three dimensional solubility parameters” J. Paint Technol. […] In this Hansen space, δD denotes the LONDON dispersion forces, δP denotes the Debye interaction forces between permanent dipoles and also the Keesom interaction forces between induced and permanent dipoles and δH denotes the specific interaction forces (hydrogen bonds, acid/base, donor/acceptor, etc.). The unit of the parts of the parameters is in each case [MPa^1/2].
The Hansen solubility parameters for many solvents are tabulated in standard works such as Hansen Solubility Parameters: A User's Handbook, C. […] It is also possible to use known modeling software, for example HSPIP 3.1.14 (3rd Edition), developed and marketed by C. M. Hansen, in order to calculate the Hansen solubility parameters on the basis of the chemical structure of the solvent.

[3] = Hansen solubility parameter, room temperature, about 23° C., cited from earlier work; for δD: LONDON dispersion forces; for δP: dipole interaction forces; for δH: specific interaction forces (hydrogen bonds etc.)
[4] = relative static permittivity, liquid pure substance; cited from earlier work
[5] = Solubility of phenothiazine in ionic liquid/solvent mixtures relative to pure solvent; settings: 20% by weight ionic liquid, 80% by weight solvent; room temperature; FIGS. 1 to 4
Protocol: In the same way, the solubility of phenothiazine in the pure solvent was determined.

[6] = Phase diagram of the system phenothiazine/proglyme/EMIM ethylsulfate; assay type: physicochemical; settings: room temperature, FIG. 6
Protocol: (§1) The phase diagram (triangular diagram) of the system phenothiazine/proglyme/EMIM ethylsulfate was determined at room temperature. In the triangular diagram, the corners correspond to the pure materials. The sides of the triangle correspond to two-component mixtures. The proportions of phenothiazine/proglyme/EMIM ethylsulfate at any point P are given by the intersections of the parallels to the sides through P with the other sides. The phase behavior (single-phase, two phases liquid/liquid, two phases solid/liquid, three-phase) at selected points is indicated by symbols.

[7] = Phase diagram of the system phenothiazine/proglyme/EMIM acetate; assay type: physicochemical; settings: room temperature, FIG. 5
Protocol: as §1, with “phenothiazine/proglyme/EMIM acetate” for “phenothiazine/proglyme/EMIM ethylsulfate”, “the side” for “the sides”

Compound	Inhibiting period ([1]; additive 1000 ppm)	Ra [2]	δD [3]	δP [3]	δH [3]	εr at 20° C. [4]	other results
tetrabutylammonium [2-(2-methoxyethoxy)ethoxy]acetate [TBA ether carboxylate]	–	–	–	–	–	–	Inhibiting period ([1]; additive 22 ppm): 378 min
OCc1ccccc1 [Benzyl alcohol]	355 min	–	–	–	–	–	–
O=C1CCCCC1 [Cyclohexanone]	75 min	3.2	17.8 MPa^1/2	8.4 MPa^1/2	5.1 MPa^1/2	16.1	–
CN(C)CCCN [3-(Dimethylamino)-1-propylamine, 3-(dimethylamino)-1-propylamine]	407 min	–	–	–	–	–	–
N-ethyl-N′-methylimidazolium ethylsulfate [EMIM ethylsulfate]	–	–	–	–	–	–	Inhibiting period ([1]; additive 29 ppm): 386 min
OCCO [Ethylene glycol]	365 min	–	–	–	–	–	relative solubility of phenothiazine in a mixture of ionic liquid and solvent, based on the solubility in the pure solvent [5]: only a small solubility-increasing effect or solubility-reducing effect
C1COCCN1 [Morpholine]	410 min	8.1	18.0 MPa^1/2	4.9 MPa^1/2	11.0 MPa^1/2	7.8	–
CN1CCCC1=O [N-Methylpyrrolidone]	343 min	8.2	16.8 MPa^1/2	2.8 MPa^1/2	6.7 MPa^1/2	32.8	–
C[S+](C)[O-] [DMSO]	317 min	7.4	18.4 MPa^1/2	16.4 MPa^1/2	10.2 MPa^1/2	47.3	–
O=S1(=O)CCCC1 [Sulfolane]	330 min	–	–	–	–	42.7	–
CCCCCCCCO [Agnique FOH 898, n-octanol]	332 min	–	–	–	–	–	–
COC(=O)c1ccccc1 [Methyl benzoate]	350 min	4.9	18.9 MPa^1/2	8.2 MPa^1/2	4.7 MPa^1/2	6.7	–
COC(=O)c1ccccc1C(=O)OC [Dimethyl phthalate]	348 min	–	–	–	–	–	–
CN1CCN(C)C1=O [Dimethylethyleneurea]	313 min	–	–	–	–	–	–
CCCCC(CC)COC(=O)CCCCC(=O)OCC(CC)CCCC (centres unmarked) [Di(2-ethylhexyl) adipate]	350 min	6.8	16.2 MPa^1/2	4.6 MPa^1/2	7.7 MPa^1/2	2.1	–
C1CCC2CCCCC2C1 (centres unmarked) [Decahydronaphthalene]	347 min	–	–	–	–	–	–
N#Cc1ccccc1 [Benzonitrile]	334 min	4.6	18.8 MPa^1/2	12.0 MPa^1/2	3.3 MPa^1/2	25.7	–

Compound	Inhibiting period ([1]; additive 1000 ppm)	Ra [2]	δD [3]	δP [3]	δH [3]	εr at 20° C. [4]	other results
c1ccc2c(c1)Nc1ccccc1S2 [phenothiazine]	–	–	–	–	–	–	phase behavior (compatibility of ionic liquid and solvent) [6]: an incompatibility between the ionic liquid and the solvent (formation of two liquid phases) is eliminated by the addition of phenothiazine above a particular concentration; solubility of phenothiazine in the solvent on addition of ionic liquid [6]: even small additions of the ionic liquid increase the solubility of phenothiazine in the solvent, with a linear increase or a slight synergistic effect up to solubility in the pure ionic liquid; phase behavior (compatibility of ionic liquid and solvent) [7]: an incompatibility between the ionic liquid and the solvent (formation of two liquid phases) is eliminated by the addition of phenothiazine above a particular concentration; solubility of phenothiazine in the solvent on addition of ionic liquid [7]: even small additions of the ionic liquid increase the solubility of phenothiazine in the solvent, with a linear increase up to the solubility in the pure ionic liquid
CC(O)C(=O)N(C)C (centres unmarked) [Agnique AMD 3 L, N,N-dimethyllactamide]	405 min	–	–	–	–	–	–
NCCN [Ethylenediamine]	341 min	–	–	–	–	–	–
O=C1CCCO1 [γ-Butyrolactone]	361 min	6.1	18.0 MPa^1/2	16.6 MPa^1/2	7.4 MPa^1/2	41.4	–
COc1ccc(C(OC)OC)cc1 [Anisacetal, p-(dimethoxymethyl)anisole]	320 min	–	–	–	–	–	–
CCCCCCCCCC(=O)N(C)C [C10-fatty acid dimethylamide]	335 min	–	16.6 MPa^1/2	6.7 MPa^1/2	5.7 MPa^1/2	13.8	–
CCCCC(CC)COC(=O)C(C)O (centres unmarked) [Agnique AE 3 2 EH, 2-ethylhexyl lactate]	279 min	–	–	–	–	–	–
CC(=O)O [Acetic acid]	347 min	–	–	–	–	–	–
Cn1ccnc1 [N-Methylimidazole]	366 min	8.8	19.7 MPa^1/2	15.6 MPa^1/2	11.2 MPa^1/2	32.0	–
COC(=O)CCC(=O)OC [Dimethyl succinate]	348 min	4.7	16.1 MPa^1/2	7.7 MPa^1/2	8.8 MPa^1/2	7.3	–
O [DI water, deionized water]	327 min	–	–	–	–	–	–
CCCCOC(=O)CCCCC(=O)OCCCC [Dibutyl adipate (Cetiol B), Dibutyl adipate]	347 min	6.8	16.4 MPa^1/2	4.3 MPa^1/2	5.9 MPa^1/2	3.0	–
CCCCC(C)=O [Methyl butyl ketone]	309 min	6.3	15.3 MPa^1/2	6.1 MPa^1/2	4.1 MPa^1/2	14.5	–
N-ethyl-N′-methylimidazolium isononanoate [EMIM isononanoate]	379 min	–	–	–	–	–	–
CCC(=O)O [Propionic acid]	337 min	–	–	–	–	–	–
CC#N [Acetonitrile]	335 min	7.8	15.3 MPa^1/2	18.0 MPa^1/2	6.1 MPa^1/2	36.8	–
COCC(C)OCC(C)OC (centres unmarked) [Dipropylene glycol dimethyl ether]	339 min	7.1	15.5 MPa^1/2	4.6 MPa^1/2	6.1 MPa^1/2	10.4	–
